Experimental data as given in patent publication US6184254A, “Methods of identifying modulators of perivascular sensory nerve Ca2+ receptors” (priority 1998, dated 2001).
“Also recorded” adds a separate entry of the source. Where two headings read alike, the source gives them in different places. Ends that are not written are not given here.

Key:
[1] = tested on: Ca^2+-induced relaxation of mesenteric resistance arteries; assay: Inhibition of Ca2+-induced relaxation of mesenteric resistance arteries by antagonists or denervation; design: species or system rat; conditions: for Result (antagonist effect on Ca2+-induced relaxation): Table 3
CaR = conditions: cited from earlier work
[2] = tested on: norepinephrine precontracted mesenteric resistance arteries (perivascular CaR); assay: Vasorelaxation of norepinephrine precontracted mesenteric resistance arteries; design: species or system rat
Source text: Branch I and II mesenteric resistance arteries, internal diameter […], are isolated from the mesenteric arcade of male Wistar rats and placed in ice cold physiologic salt solution (PSS) of the following composition in mM: NaCl, 130-140; KCl, 4.7; MgSO4.7H2 O, 1.17; NaHCO3, 5-15; KH2 PO4, 1.15 and Na2 HPO4, 1.10, CaCl2, 1.0; HEPES, 50; and glucose, 5, with a pH of 7.4 when gassed with 95% air, 5% CO2.
After cleaning of fat and connective tissue, the arterial segments are denuded of endothelium by rubbing a human hair in and out of the lumen. The vessel segments are then mounted between a force transducer and translation stage of a wire myograph using tungsten wire and the PSS is warmed to 37° C. and gassed with 95% air, 5% CO2 to provide a pH of 7.4. The vessel segments are then stretched to a length which is equivalent to an internal diameter of […] and allowed to equilibrate for 30 minutes. The vessels are then exposed to […] norepinephrine for three 5 minute periods to induce reproducible contractile responses. […] The vessel is then washed and allow to relax to baseline.
To determine whether the test compound is a vasodilator, the vessel is again precontracted by the addition of […] norepinephrine, and after the force response reaches a steady state, the test compound is cumulatively added and the effect on force generation is determined. […] Ca^2+ receptor agonists that are found to be endothelium-independent vasodilators and whose dilator activity is blocked by quinacrine and sensory denervation are moved onto the tertiary in vivo blood pressure screen.
(§1) Mesenteric resistance arteries were precontracted with either 100 mM K^+ (in the presence of 1 μM phentolamine) or 5 μM norepinephrine and response to cumulative addition of NPS R831 (10 nM to 50 μM) determined.

mean arterial pressure = assay: Mean arterial pressure of conscious SHR and WKY rats after bolus administration; assay type: in vivo, rat (SHR and WKY)
Source text: FIG. 12. Effect of bolus administration of 3 μmol/kg NPS R467 on mean arterial pressure (carotid artery catheter) of conscious SHR rats.
FIG. 13. Effect of bolus administration of 1 μmol/kg NPS R831 on mean arterial pressure (carotid artery catheter) of conscious SHR and WKY.
The initial studies assessed the effect of bolus administration of NPS R467 on mean arterial pressure of conscious rats of both strains.
As noted, one result of the studies in Example 1 was the identification of NPS R831 as a candidate compound for assessment of blood pressure lowering effects. A study was performed in which the effect of a bolus injection of NPS R831 on blood pressure of a single SHR and a single WKY rat were measured.

[3] = tested on: voltage sensitive Ca^2+ channel; conditions: "in view of statements"; cited from earlier work
Ca^2+ channels = target: T1, Ca^2+ channels (Rattus norvegicus, UniProt P22002); assay: Relaxation of mesenteric arteries precontracted with 100 mM K+ (Ca2+ channel blocking activity)
T1 construct: voltage sensitive Ca^2+ channels present on smooth muscle; from tissue; host or cells: isolated mesenteric resistance arteries (rat)
Source text: Prior studies have shown that the parathyroid CaR agonists of the NPS R467 class block voltage sensitive Ca^2+ channel at mid-micromolar concentrations. […] The rationale was based on the facts that (a) K^+ -induced contraction is the result of influx of Ca^2+ into the cell through voltage gated Ca^2+ channels, and (b) Ca^2+ -induced relaxation is not observed during K^+ depolarization. Thus, CaR agonist mediated relaxation observed during K^+ induced contraction would reflect Ca^2+ channel blocking activity while […] relaxation observed during norepinephrine-induced contraction (which results from both Ca^2+ release and Ca^2+ entry) would be a mixture of Ca^2+ receptor stimulated relaxation and Ca^2+ channel activity.
as §1, with “determined. […] To determine that the high sensitivity component observed during norepinephrine-induced contraction is mediated by the perivascular CaR two additional studies are conducted.” for “determined.”

rat tail arteries = conditions: cited from earlier work
[4] = tested on: mesenteric resistance arteries; assay: Isometric force/active stress of Ca2+-depleted mesenteric resistance arteries; design: species or system Wistar rat
Description: In the course of studies designed to examine the hypothesis that the Ca^2+ force relationship of resistance arteries is altered in genetically hypertensive rats, it was discovered that physiologic concentrations of extracellular Ca^2+ affected the repeated contraction elicited by norepinephrine in Ca^2+ -free medium.
Mesenteric resistance arteries were isolated from Wistar rats; and intracellular Ca^2+ and isometric force were measured using a fura-based method and w ire myography (Bian, et aL, 1995b). Vessels were depleted of releasable Ca^2+ by repeated contraction with norepinephrine; and extracellular Ca^2+ was then cumulatively added back from 0.025-2.5 mmol/L in the presence of a n agonist. […] It was concluded that extracellular Ca^2+ limits force generation by depressing myofilament Ca^2+ sensitivity and decreasing intracellular Ca^2+ secondary to activation of a Ca^2+ -sensitive K^+ channel.

[5] = bolus injection, single SHR and single WKY
[6] = FIG. 16, 3 μM miconazole, 1 μM pentobarbital or 1 μM quinacrine, p<0.05

T1 sequence (P22002 whole entry): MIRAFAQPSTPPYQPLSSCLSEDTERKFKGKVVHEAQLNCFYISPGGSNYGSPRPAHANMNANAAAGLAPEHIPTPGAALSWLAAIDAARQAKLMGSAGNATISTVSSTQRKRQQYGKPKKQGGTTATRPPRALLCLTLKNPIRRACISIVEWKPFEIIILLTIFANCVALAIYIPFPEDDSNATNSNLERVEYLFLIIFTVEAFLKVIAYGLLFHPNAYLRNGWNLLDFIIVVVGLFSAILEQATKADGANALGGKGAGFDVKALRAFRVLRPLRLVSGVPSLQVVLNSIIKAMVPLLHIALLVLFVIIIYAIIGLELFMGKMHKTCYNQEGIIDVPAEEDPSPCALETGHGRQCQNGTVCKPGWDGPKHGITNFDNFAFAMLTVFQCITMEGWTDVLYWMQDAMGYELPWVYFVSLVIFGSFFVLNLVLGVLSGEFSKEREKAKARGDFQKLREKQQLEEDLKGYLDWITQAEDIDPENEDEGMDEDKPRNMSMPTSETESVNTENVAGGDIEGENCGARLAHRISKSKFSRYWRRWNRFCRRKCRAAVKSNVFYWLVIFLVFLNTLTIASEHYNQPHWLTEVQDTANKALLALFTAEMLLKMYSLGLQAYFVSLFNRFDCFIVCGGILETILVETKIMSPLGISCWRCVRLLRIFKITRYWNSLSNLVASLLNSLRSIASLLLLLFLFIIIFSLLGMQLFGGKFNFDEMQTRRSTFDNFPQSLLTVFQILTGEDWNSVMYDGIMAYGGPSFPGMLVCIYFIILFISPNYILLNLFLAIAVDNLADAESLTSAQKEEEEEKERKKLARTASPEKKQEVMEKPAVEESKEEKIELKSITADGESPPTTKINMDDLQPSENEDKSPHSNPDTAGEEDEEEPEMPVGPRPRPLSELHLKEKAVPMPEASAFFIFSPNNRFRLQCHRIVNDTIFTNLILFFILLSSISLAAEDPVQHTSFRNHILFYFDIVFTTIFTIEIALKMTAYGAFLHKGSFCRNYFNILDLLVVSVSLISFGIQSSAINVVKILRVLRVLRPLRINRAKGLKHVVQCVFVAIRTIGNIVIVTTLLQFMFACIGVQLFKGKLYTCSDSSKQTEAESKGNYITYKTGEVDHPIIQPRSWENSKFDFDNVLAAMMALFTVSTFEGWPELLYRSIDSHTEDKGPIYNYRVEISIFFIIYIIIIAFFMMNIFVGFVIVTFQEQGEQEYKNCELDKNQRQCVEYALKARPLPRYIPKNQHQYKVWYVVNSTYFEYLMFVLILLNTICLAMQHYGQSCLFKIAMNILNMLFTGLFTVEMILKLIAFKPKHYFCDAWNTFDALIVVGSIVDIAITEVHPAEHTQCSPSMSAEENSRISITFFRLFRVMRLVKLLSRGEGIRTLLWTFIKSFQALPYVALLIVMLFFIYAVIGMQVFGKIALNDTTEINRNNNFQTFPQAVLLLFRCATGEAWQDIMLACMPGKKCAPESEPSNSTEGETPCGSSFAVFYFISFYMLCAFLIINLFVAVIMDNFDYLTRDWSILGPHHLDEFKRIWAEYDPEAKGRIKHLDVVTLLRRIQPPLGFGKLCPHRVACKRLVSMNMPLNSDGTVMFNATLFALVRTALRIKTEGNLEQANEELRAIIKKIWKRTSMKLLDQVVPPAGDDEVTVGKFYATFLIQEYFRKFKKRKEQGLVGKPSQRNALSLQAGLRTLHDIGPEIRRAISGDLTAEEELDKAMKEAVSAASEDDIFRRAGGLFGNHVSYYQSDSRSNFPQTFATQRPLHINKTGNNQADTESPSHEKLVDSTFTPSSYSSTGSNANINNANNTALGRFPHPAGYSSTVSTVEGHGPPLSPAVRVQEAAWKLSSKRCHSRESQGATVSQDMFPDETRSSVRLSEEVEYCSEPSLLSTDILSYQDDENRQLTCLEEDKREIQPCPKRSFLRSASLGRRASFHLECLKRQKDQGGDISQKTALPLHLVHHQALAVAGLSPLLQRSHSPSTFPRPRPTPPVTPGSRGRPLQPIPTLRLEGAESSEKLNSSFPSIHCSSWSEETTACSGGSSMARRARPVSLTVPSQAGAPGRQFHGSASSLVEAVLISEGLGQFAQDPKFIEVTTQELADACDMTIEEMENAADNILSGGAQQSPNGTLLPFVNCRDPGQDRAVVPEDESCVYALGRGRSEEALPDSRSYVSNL
T1 sequence (P54290 25-944 partner limits assumed): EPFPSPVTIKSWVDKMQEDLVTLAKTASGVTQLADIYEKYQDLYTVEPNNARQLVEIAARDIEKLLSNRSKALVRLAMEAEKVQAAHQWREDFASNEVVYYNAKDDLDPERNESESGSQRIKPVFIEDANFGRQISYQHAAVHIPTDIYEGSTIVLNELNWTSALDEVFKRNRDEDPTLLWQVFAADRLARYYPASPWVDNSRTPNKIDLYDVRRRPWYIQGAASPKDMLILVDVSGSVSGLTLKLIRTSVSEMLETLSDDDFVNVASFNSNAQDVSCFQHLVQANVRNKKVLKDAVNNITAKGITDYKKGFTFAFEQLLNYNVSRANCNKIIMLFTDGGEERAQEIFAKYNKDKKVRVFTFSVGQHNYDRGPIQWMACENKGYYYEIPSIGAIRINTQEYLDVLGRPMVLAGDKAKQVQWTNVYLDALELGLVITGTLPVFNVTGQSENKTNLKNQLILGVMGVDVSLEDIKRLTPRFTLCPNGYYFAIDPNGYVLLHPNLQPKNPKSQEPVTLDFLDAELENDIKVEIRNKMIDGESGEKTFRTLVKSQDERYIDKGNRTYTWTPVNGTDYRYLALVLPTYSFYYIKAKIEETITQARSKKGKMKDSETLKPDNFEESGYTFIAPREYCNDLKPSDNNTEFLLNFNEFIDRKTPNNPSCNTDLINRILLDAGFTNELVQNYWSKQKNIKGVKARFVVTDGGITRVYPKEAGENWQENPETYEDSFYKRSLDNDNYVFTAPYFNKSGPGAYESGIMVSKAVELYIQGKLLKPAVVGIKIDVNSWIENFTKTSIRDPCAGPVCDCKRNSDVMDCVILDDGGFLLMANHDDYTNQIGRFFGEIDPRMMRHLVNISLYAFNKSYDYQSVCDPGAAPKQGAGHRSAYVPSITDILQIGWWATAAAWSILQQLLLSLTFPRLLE
T1 sequence (P54290 945-1091 partner limits assumed): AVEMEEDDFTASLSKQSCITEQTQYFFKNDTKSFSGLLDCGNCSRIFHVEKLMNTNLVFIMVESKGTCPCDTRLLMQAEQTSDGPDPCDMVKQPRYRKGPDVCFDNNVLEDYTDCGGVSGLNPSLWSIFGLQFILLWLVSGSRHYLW

## 4 Cl-D-Phe^6,Leu^17 -VIP
[1]
  Result (antagonist effect on Ca2+-induced relaxation): no effect

## COc1ccccc1CN[C@H]1CCCN[C@H]1c1ccccc1 [CP99, 994]
[1]
  Result (antagonist effect on Ca2+-induced relaxation): no effect

## [Gd+3] [Gd^3+]
CaR
  activation of CaR: activated

## COC(=O)[C@@H](N)CCCNC(=N)N[N+](=O)[O-] [L-NAME]
[1]; 100 μM L-NAME
  effect on Ca2+-induced relaxation: inhibited/reversed
[1]; L-NAME pre-treatment
  effect on Ca2+-induced relaxation: partially inhibited
[1]
  Result (antagonist effect on Ca2+-induced relaxation): no effect

## [La+3] [La^3+]
CaR
  activation of CaR: activated

## COc1cccc([C@@H](C)NCCCc2ccccc2)c1 [NPS R467]
[2]; 10 mM TEA, 10's of nM drug
  effect of TEA on relaxation induced by low range of the drug: completely antagonized
[2]; TEA, higher concentration
  effect of TEA on relaxation induced by higher concentration of the drug: not blocked by TEA
[2]; biphasic relaxation, high range
  concentration causing a larger relaxation: 3 to 10 µM
[2]; biphasic relaxation, low range
  concentration inducing relaxation of similar extent to the Ca2+ relaxation: 50 to 300 nM
[2]; interpretation consistent with data
  concentration activating the perivascular Ca2+ receptor and inducing relaxation: 30 to 300 nM
Mean arterial pressure; bolus, both strains
  time for development of blood pressure lowering effect: 30 to 40 min
Mean arterial pressure; bolus, conscious rats, both strains
  blood pressure lowering effect: modest and slowly developing
[3]
  concentration of non-selective channel effects: ≥ 4 µM

## COc1cccc([C@@H](C)NCCCc2ccccc2OC)c1 [NPS R831]
[2]; compared with parathyroid CaR system
  potency in relaxing precontracted arteries vs activating the parathyroid CaR: relaxes precontracted arteries with the same potency as it activates the parathyroid CaR system
[2]; norepinephrine-induced contraction
  concentration of possibly perivascular CaR mediated component: sub-micromolar concentrations
Ca^2+ channels; 100 mM K+ (1 μM phentolamine) vs 5 μM norepinephrine, NPS R831 10 nM to 50 μM
  shift of relaxation response during K+- vs norepinephrine-induced contraction: significantly shifted to the right (less sensitive)
Ca^2+ channels; K+ vs norepinephrine contraction
  concentration of Ca2+ channel blocking mechanism of action: mid-μM concentrations
Ca^2+ channels; mesenteric arteries precontracted with 100 mM K+, read-out: IC50 for block of Ca2+ channels
  IC50: ~1.5 µM
Mean arterial pressure; [5]
  blood pressure lowering effect: moderately rapid (within 5 min) blood pressure lowering effect in both strains
  onset of blood pressure lowering effect: ≤ 5 min

## CC(=O)NC1(c2ccccc2)CCN(CC[C@H](CN(C)C(=O)c2ccccc2)c2ccc(Cl)c(Cl)c2)CC1 [SR48968]
[1]
  Result (antagonist effect on Ca2+-induced relaxation): no effect

## CC(=O)N(C)C1(c2ccccc2)CCN(CCC[C@]2(c3ccc(Cl)c(Cl)c3)CCCN(C(=O)c3ccccc3)C2)CC1 [SR 142801]
[1]
  Result (antagonist effect on Ca2+-induced relaxation): no effect

## CC(C)Oc1cccc(CC(=O)N2CCC[C@](CC[N+]34CCC(c5ccccc5)(CC3)CC4)(c3ccc(Cl)c(Cl)c3)C2)c1 [SRI40333]
[1]
  Result (antagonist effect on Ca2+-induced relaxation): no effect

## CC[N+](CC)(CC)CC [TEA]
[1]
  effect on Ca2+-induced relaxation: completely inhibited; also recorded: antagonized

## CSCC[C@H](NC(=O)[C@H](CC(C)C)NC(=O)CNC(=O)[C@H](Cc1ccccc1)NC(=O)[C@H](Cc1ccccc1)NC(=O)[C@H](CCC(N)=O)NC(=O)[C@H](CCC(N)=O)NC(=O)[C@@H]1CCCN1C(=O)CNC(=O)[C@H](CC(C)C)NC(=O)[C@H](CC(C)C)NC(=O)[C@H](Cc1ccc(O)cc1)NC(=O)CNC(=O)[C@H](C)NC(=O)[C@H](CO)NC(=O)[C@H](CC(N)=O)NC(=O)[C@H](CC(C)C)NC(=O)[C@@H](NC(=O)[C@H](Cc1c[nH]c2ccccc12)NC(=O)CN)[C@@H](C)O)C(N)=O [galantide]
[1]
  Result (antagonist effect on Ca2+-induced relaxation): no effect

## COc1ccc2c(c1)c(CC(=O)O)c(C)n2C(=O)c1ccc(Cl)cc1 [indomethacin]
[1]; at 1.5 mM Ca2+
  Result (antagonist effect on Ca2+-induced relaxation): partial effect

## Clc1ccc(COC(Cn2ccnc2)c2ccc(Cl)cc2Cl)c(Cl)c1 (centres unmarked) [miconazole]
[1]; 5 mM Ca2+
  effect on Ca2+-induced relaxation: significantly attenuated
[1]; Ca2+ 1.5-3 mM
  effect on Ca2+-induced relaxation: completely antagonized
[1]; [6]
  effect on Ca2+-induced relaxation: significantly attenuated

## Oc1ccc2c3c1O[C@H]1c4[nH]c5c(c4C[C@@]4(O)[C@@H](C2)N(CC2CC2)CC[C@]314)C[C@@]1(O)[C@H]2Cc3ccc(O)c4c3[C@@]1(CCN2CC1CC1)[C@H]5O4 [nor-binaltorphmine]
[1]
  Result (antagonist effect on Ca2+-induced relaxation): no effect

## C[C@@H]1O[C@@H](O[C@H]2C[C@@H](O)[C@]3(CO)[C@H]4[C@H](O)C[C@]5(C)[C@@H](C6=CC(=O)OC6)CC[C@]5(O)[C@@H]4CC[C@]3(O)C2)[C@H](O)[C@H](O)[C@H]1O [ouabain]
Rat tail arteries
  effect of pre-treatment on Ca2+-induced relaxation of rat tail arteries: antagonized

## CCCC(C)C1(CC)C(=O)NC(=O)NC1=O (centres unmarked) [pentobarbital]
[1]
  effect on Ca2+-induced relaxation: significantly attenuated
[1]; 5 mM Ca2+
  effect on Ca2+-induced relaxation: significantly attenuated
[1]; Ca2+ 1.5-3 mM
  effect on Ca2+-induced relaxation: completely antagonized

## Oc1ccccc1 [phenol]
[1]
  effect on Ca2+-induced relaxation: completely blocks and often reverses; also recorded: significantly inhibited; also recorded: completely inhibits

## CCN(CC)CCCC(C)Nc1c2ccc(Cl)cc2nc2ccc(OC)cc12 (centres unmarked) [quinacrine]
[1]; [6]
  effect on Ca2+-induced relaxation: significantly attenuated
[1]; PLA2 blockade
  effect on Ca2+-induced relaxation: significantly attenuates

## NCCCNCCCCNCCCN [spermine]
CaR
  activation of CaR: activated

## CN1[C@@H]2CC[C@H]1C[C@@H](O)C2 [tropine]
[1]
  Result (antagonist effect on Ca2+-induced relaxation): no effect

## CGRP (8-37): CGRP antagonist (VTHRLAGLLSRSGGVVKNNFVPTNVGSKAF; ends and bridges not checked; UniProt P06881 90-119, looked up, fragment)
[1]
  Result (antagonist effect on Ca2+-induced relaxation): no effect

## charybdotoxin
[1]; prior results, K / KCa channel blockade
  effect on Ca2+-induced relaxation: antagonized
[4]
  effect on decrease in active stress induced by 1.6 and 2.5 mmol/L extracellular Ca2+: inhibited

## neomycin
CaR
  activation of CaR: activated

## spantide II
[1]
  Result (antagonist effect on Ca2+-induced relaxation): no effect

## tin protoporphorin IX
[1]
  Result (antagonist effect on Ca2+-induced relaxation): no effect
